Entries after “also recorded” stand apart in the source; their conditions may differ.
How the values were obtained:
exposed cortex = assay: Focally-induced cortical seizures (4AP or PTX): intravital fluorescence angiography of vessel diameter and BBB permeability; type: in vivo, rat; details: for increase in vessel diameter: seizures induced by 4AP (n=6) or PTX (n=2), pooled n=8, immediate
Experimental: All experimental procedures in animals were approved by the Ben-Gurion University ethics committee for animal testing. Unless otherwise mentioned, all materials were purchased from Sigma-Aldrich ltd. Surgical procedures in male Spraugue-Dawley rats (200-380 g BW) were performed as previously reported (Prager et al., 2010). Rats were deeply anesthetized by intraperitoneal administration of either isoflurane or ketamine (100 mg/ml, 0.08 ml/100 gr) and xylasine (20 mg/ml, 0.06 ml/100 gr). The tail vein was catheterized, and animals were placed in a stereotactic frame (FIG. 4A) under a SteREO Lumar V12 fluorescence microscope (Zeiss, Gottingen, Germany).
(§1) Body temperature was continuously monitored and kept stable at 37±0.5° C. using a feedback-controlled heating pad (Physitemp Ltd.). Heart rate, breath rate and oxygen saturation levels were continuously monitored using STARR (Life Sciences Ltd.). A cranial section (4 mm caudal, 2 mm frontal, 5 mm lateral to bregma) was removed over the right sensory-motor cortex. The dura and arachnoid layers were removed (FIG. 4B) and the exposed cortex was continuously perfused with ACSF (Prager et al., 2010) containing (in mM): 124 NaCl, 26 NaHCO3, 1.25 NaH2PO4, […], 2 CaCl2, 3 KCl, and 10 Glucose (pH 7.4).
(§2) To block neuronal activity tetrodotoxin (TTX) (Narahashi et al., 1964) (10 μM), 6-Cyano-2,3-dihydroxy-7-nitro-quinoxaline (CNQX) (Yoshiyama et al., 1995) (50 μM), D-AP5 (Morris, 1989) (50 μM) and picrotoxin (PTX) (Yoon et al., 1993) (50 μM) were added to the perfusing solution (ACSF). To induce prolonged seizures (status epilepticus, SE), 4AP (Uva et al., 2013) (500 μM) or PTX (100 μM) were added to the ACSF. Electrocorticgram (ECoG) was recorded using bi-polar electrodes and a telemetric recording system (DSI Ltd.). In some cases, thrombotic stroke was induced using photothrombosis (Prado, 1987). Detection of calcium ions in the rat cortex was done with calcium chelators as previously reported (Stosiek et al., 2003). 50 μg of the fluorescent chelator OGB were dissolved in 4 μl of dimethyl sulfoxide) DMSO) containing 20% pluronic f-127. This mixture was diluted in […] of a loading solution containing (in mM): 150 NaCl, 2.5 KCl, 10 HEPES, in ddH2O (pH=7.4).
(§3) Dynamic imaging of regional cerebral blood flow (rCBF) and BBB permeability measurements were performed as reported (Chassidim et al., 2014; Prager et al., 2010). The non-BBB permeable fluorescent dye, sodium fluorescein (NaFlu) was injected intravenously (1 mg/ml, 0.2 ml/injection, in 0.9% NaCl). Full-resolution (658×496 pixel) images of cortical surface vessels were obtained (5 frames/second, EMCCD camera: Andor Technology, DL-658 M-TIL, FIG. 4C) before, during and after injection of the tracer. Offline image analysis was carried out using MATLAB (MathWorks, Natick, USA) and included: sub-pixel image registration, segmentation using noise filtration, hole-filling and adaptive threshold to produce a binary image, separating blood vessels from extra-vascular regions (FIG. 4D). Signal intensity changes over time and space were then analyzed so that each pixel was represented by intensity vs. time (IT) curve (FIG. 4E). An arterial IT curve (AIF) was created by spatially averaging signal intensity through time in the primary artery. A BBB permeability index (PI) (FIG. 4E) was calculated for each extra-vascular pixel as the ratio between IT curve and AIF, from the point of the second decline phase to the end of the measurement
(§4) The PI indicates how much tracer remains in extra-vascular tissue in relation to the applied amount. PI>1 indicates tracer accumulation and defines BBB dysfunction. Fitting a PI to each extra-vascular pixel enabled spatial mapping of BBB permeability (FIG. 4F). The PI for each vascular pixel was set to 0, and therefore vessels were excluded from the map. The global permeability of a region was calculated by averaging its PI values. […]

[1] = Preventing intracellular calcium elevation with calcium chelators in vivo; details: data not shown
Source text: The observations that direct application of NMDA similarly enhances permeability, and that permeability increase is blocked in the presence of NMDA-R blockers (FIG. 2A) indicate that the effect of glutamate is mediated by NMDA-R. Our experiments showing increased intracellular calcium in vascular endothelium in response to glutamate are consistent with previous in vitro data showing that NMDA-mediated effects are dependent on increased intracellular calcium (Krizbai et al., 1998; Sharp et al., 2003). However, we cannot rule out non-calcium dependent signaling mechanisms and the role of other components of the neurovascular unit, such as astrocytes and pericytes, which could also respond to glutamate and signal brain endothelial cells to alter permeability (Carmignoto and Gómez-Gonzalo, 2010). […] The intracellular signaling leading to enhanced permeability is also not clear. […] The latter seems unlikely with the relatively short time delay between insult (seizure/stroke) and enhanced permeability. Modulation of transcellular transport mechanisms (e.g. intercellular adhesion molecule-ICAM mediated) (Yang et al., 2005)) may also be involved.

cortex of rats = type: in vivo, rat; details: for increase in vessel permeability: cortical perfusion 1 mM, TTX, CNQX and PTX present
Experimental: as §1, §2, §3
as §4, with “values. Permeability measurements with this approach are possible only for regions with fully functional vasculature as the transfer of molecules between vessel and parenchyma is quantified. Increased permeability in damaged vessels is not depicted here.” for “values.”

peri-ischemic cortex = assay: Photothrombosis stroke model: BBB dysfunction in the peri-ischemic cortex; type: in vivo, rat
Experimental: as §3, with “Offline image analysis was carried out using MATLAB (MathWorks, Natick, USA) and included: sub-pixel image registration, segmentation using noise filtration, hole-filling and adaptive threshold to produce a binary image, separating blood vessels from extra-vascular regions (FIG. 4D).” left out, “An arterial IT curve (AIF) was created by spatially averaging signal intensity through time in the primary artery.” left out
The PI indicates how much tracer remains in extra-vascular tissue in relation to the applied amount. […] The global permeability of a region was calculated by averaging its PI values. Permeability measurements with this approach are possible only for regions with fully functional vasculature as the transfer of molecules between vessel and parenchyma is quantified. […]

exposed rat neocortex = assay: NMDA-R antagonists during 4AP-induced recurrent seizures: BBB permeability, ECoG, vessel diameter; type: in vivo; details: 4AP seizures, Memantine 40 mg/kg IP or D-AP5 100 μM topical; for seizure-induced permeability increase / BBB damage: pooled, p=0.02
Experimental: as §3
ECoG was recorded using a telemetric system (DSI Ltd.). Two electrodes were implanted, one attached to an intra-cranial screw adjacent to the exposed cortex, and the second placed over the exposed cortex while secured with bone wax and dental cement. In-house MATLAB scripts were used to display and record signals for post-processing. Signals were sampled at 200 Hz and filtered using a MATLAB simulated Butterworth filter, so to display only the desired frequency band (10-40 Hz). The mean power was calculated using the MATLAB “pwelch” function.
Since prolonged and recurrent epileptic seizures may also be associated with vascular pathology and damage to the BBB through the activation of NMDA-R, the effect of NMDA-R antagonists after the induction of recurrent seizures in anesthetized rats was tested. The epileptogenic substance 4AP was applied on the surface of the brain while monitoring ECoG.
Animals were treated with either topical application of the specific NMDA-R blocker D-AP5 (100 μM) (prior to and during seizure induction), or systemically with the FDA approved memantine (40 mg/kg, intraperitonealy, immediately following seizure onset).

[2] = tested on: vessels' wall (rat neocortex); assay: Calcium imaging (OGB, probe-based confocal laser endomicroscopy) in vessel wall after drop application of glutamate; type: in vivo
Experimental: as §2
The exposed cortex was incubated with the final mixture for 1 hour. Probe-based confocal laser endomicroscopy (PCLE) was performed using Cellvizio dual band (Mauna Kea Technologies Ltd.) at 488 and 660 nm. […]
In control experiments, brains were exposed to ACSF for 60-120 min, no significant change in permeability was measured, excluding a time-dependent increase in permeability (“control”, −5.11±3.07%, n=16, P=0.7, Wilcoxon, FIG. 2A). […]

[3] = tested on: cultured brain endothelial cells; details: cited from earlier work
[4] = 30 minutes from seizure onset, recurrent seizures, n=7
[5] = ~10 minutes from seizure onset, 4AP or PTX pooled, n=8

Nc1ccncc1 [4AP]
increase in vessel permeability to NaFlu (exposed cortex; [4]): 14.17±4.65%
increase in vessel diameter (exposed cortex): 10.05±1.01%
increase in vessel permeability to NaFlu (exposed cortex; [5]): 20.01±7.24%

CC(=O)OCOC(=O)CN(CC(=O)OCOC(C)=O)c1ccccc1OCCOc1ccccc1N(CC(=O)OCOC(C)=O)CC(=O)OCOC(C)=O [BAPTA-AM]
vascular side effect in vivo [1]: massive vasoconstriction and associated ischemia

N[C@H](CCCP(=O)(O)O)C(=O)O [D-AP5, R-2-amino-5-phosphonopentanoate]
change in vessel permeability by glutamate in the presence of antagonist (cortex of rats; glutamate + D-AP5 50 μM): −3.81±4.34%
averaged percent increase in permeability in the peri-infarct cortex (peri-ischemic cortex; 30 and 60 min following PT, n=7, p=0.13): non-significant change
spatial progression of BBB dysfunction in the peri-ischemic region (peri-ischemic cortex; 30 and 60 minutes after clot induction, vs absence of D-AP5): significantly reduced; also recorded: significantly diminishes
seizure intensity (ECoG) (exposed rat neocortex): no impact
seizure-induced permeability increase / BBB damage (exposed rat neocortex): diminished

CN[C@H](CC(=O)O)C(=O)O [NMDA, N-methyl-d-aspartate]
increase in vessel permeability (cortex of rats): 18.44±7.58%

N[C@@H](CCC(=O)O)C(=O)O [glutamate]
increase in vessel permeability (cortex of rats): 18.15%±5.9%
change in vessel diameter (cortex of rats; glutamate application with TTX, CNQX, PTX): 3.12±2.24%
shift in vascular diameter (cortex of rats; topical glutamate 1 mM with axonal and synaptic transmission blockers): not inducing a shift in vascular diameter
calcium signal in the vessel wall ([2]; drop application of glutamate): Rise in calcium signal
duration of increase in endothelial intracellular calcium ([2]; drop application of glutamate 0.01-1 mM, n=109): 12.5 ± 1.3 s
permeability of cultured brain endothelial cells [3]: increase permeability
tight junction protein occludin ([3]; glutamate 1 mM, NMDA-R mediated): reduction in the levels and cellular redistribution
electrical resistance ([3]; glutamate 1 mM): lower electrical resistance

CC12CC3CC(C)(C1)CC(N)(C3)C2 [memantine]
seizure intensity (ECoG) (exposed rat neocortex): no impact
seizure-induced permeability increase / BBB damage (exposed rat neocortex): diminished

picrotoxin [PTX]
increase in vessel permeability to NaFlu (exposed cortex; [4]): 14.17±4.65%
increase in vessel diameter (exposed cortex): 10.05±1.01%
increase in vessel permeability to NaFlu (exposed cortex; [5]): 20.01±7.24%
